The values below come from PubChem BioAssay (NCI).

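These data come from cells grown in 96-well plates and exposed to compound for 48 hours at five concentrations. GI50 marks 50% less growth. At the TGI there is no net growth.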

Test systems include IGROV1 ovarian; A498 renal; K-562 leukemia; SW-620 colon; SN12C renal; OVCAR-3 ovarian; OVCAR-8 ovarian; T-47D breast; SF-268 CNS; SR leukemia.
What all share (experiment): NCI tumour cell line growth inhibition, 48 h

Take `O=C(/C=C/C=C/c1ccccc1)c1ccco1`: the GI50 with IGROV1 ovarian was 18.3 µM; with A498 renal it was 14.3 µM; in the experiment with K-562 leukemia, 10.1 µM; in the experiment with SW-620 colon, 13.4 µM; in the experiment with SN12C renal it was 16 µM; in the experiment with OVCAR-3 ovarian, 14.2 µM. The GI50 in the experiment with OVCAR-8 ovarian is 27.1 µM; in the experiment on T-47D breast it was 7.5 µM; in the experiment on SF-268 CNS it was 18.2 µM; in the experiment on SR leukemia, 1.86 µM. Also, the TGI in the experiment with IGROV1 ovarian was found to be 37.6 µM; in the experiment on A498 renal, 39.1 µM; in the experiment with K-562 leukemia it was 29.6 µM; in the experiment with SW-620 colon, 28.6 µM; in the experiment with SN12C renal, 34.9 µM; in the experiment on OVCAR-3 ovarian, 27.6 µM. The TGI is over 100 µM in the experiment on OVCAR-8 ovarian, 37.5 µM in the experiment on T-47D breast, 41.1 µM in the experiment on SF-268 CNS and 11.2 µM with SR leukemia.

Consider `Cc1ccc([N+](=O)[O-])c2c(NCCNC(=O)c3cc(C(=O)NCCNc4ccnc5c(C)ccc([N+](=O)[O-])c45)n(C)n3)ccnc12`, for which the TGI in the experiment on IGROV1 ovarian was over 100 µM; in the experiment on A498 renal it was over 100 µM; in the experiment with K-562 leukemia, over 76.4 µM; with SW-620 colon, 53.4 µM; in the experiment on SN12C renal, over 70.9 µM; with OVCAR-3 ovarian it was over 100 µM. Further, the TGI was over 100 µM with OVCAR-8 ovarian, over 100 µM with T-47D breast, over 100 µM with SF-268 CNS and over 82 µM with SR leukemia.
